Patent publication US9198967B2, “Pharmaceutical compositions active in preventing, stabilizing and treating Alzheimer's disease” (priority 2009, dated 2015)

Test system: fusiform erythrocytes (FE)
Assay: FE percentage by Nomarski microscopy on 400 erythrocytes, 6-month clinical study
Format: in vivo, human
Conditions: 6 months
Experimental: The effect of the composition of the invention on FE is measured by the percentage difference in fusiform erythrocytes present in the patient's blood before and after treatment with the composition of the invention.
During the assessments blood was collected, after fasting since the previous evening, into heparinized and non-heparinized tubes. Aliquots of 5 ml were collected (2 of plasma and 1 of serum) from the brachial vein. The collected blood was immediately centrifuged and kept at −80° C. until required for the measurements. A fourth aliquot of 2 ml, without heparin, was collected for FE analysis.
FE measurements were carried out by isolating the erythrocyte pellet by centrifugation (100×g for 15 minutes at 4° C.) and diluting it in 2 ml of a citrate-phosphate-dextrose solution with adenine (CPDA) then centrifuged once more.
After centrifugation the upper part of the solution was removed and the process repeated three times always resuspending with CPDA.
Immediately after the last preparation, FE percentage was calculated using a microscope with Nomarski optics based on an analysis of 400 erythrocytes [Mohanty J G, Eckley D M, J D Williamson et al. Do red blood cell-β-amyloid interaction alter oxygen delivery in Alzheimer's disease? Adv Exp Med Biol 2008; 614:29-35.]

COc1cc2c(cc1OC)C(=O)C(CC1CCN(Cc3ccccc3)CC1)C2 (stereo not shown) [Donepezil]
effect on the number of FE (in words): improvement in the FE
